≈ marks a conversion by molar mass, not a printed value.

Test [1] deals with HCT116 colon cancer cells. Nature of the test: Western blot of apoptosis regulatory proteins, HCT116. The format is cell-based, human. Conditions: HCT116, 30-150 μg/ml, 24 h. How it is done:
The cells were treated with different concentrations (30-150 μg/ml) of thiacremonone at 37° C. for 24 h. Equal amounts of total proteins (50 μg/lane) were subjected to 12% SDS-PAGE. Expressions of Bax, cleaved caspase-3, cleaved PARP, Bcl-2, cIAP1/2, XIAP, and β-actin were detected by western blotting using specific antibodies. β-Actin protein was used an internal control. Panel a: SW620 colon cancer cells. Panel b: HCT116 colon cancer cells. Each band is representative of three independent experiments.
Cultured cells were washed twice with 1×PBS, followed by the addition of 1 ml of PBS, and the cells were scraped into a cold Eppendorf tube. Cells were homogenized with lysis buffer [50 mM Tris pH 8.0, 150 mM NaCl, 0.02% sodium azide, 0.2% SDS, 1 mM PMFS, 10 μl/ml aprotinin, 1% igapel 630 (Sigma-Aldrich, St. Louis, Mo., USA), 10 mM NaF, 0.5 mM EDTA, 0.1 mM EGTA, and 0.5% sodium deoxycholate] and centrifuged at 23,000×g for 15 min. The protein concentration was measured by the Bradford method (Bio-Rad Protein Assay; Bio-Rad Laboratories Inc., Hercules, Calif., USA), and equal amount of proteins (50 μg) were separated on a SDS/12%-polyacrylamide gel and then transferred to a Hybond ECL nitrocellulose membrane (Amersham Pharmacia Biotech Inc., Piscataway, N.J., USA). Blots were blocked for 2 h at room temperature with 5% (w/v) non-fat dried milk in Tris-buffered saline [10 mM Tris (pH 8.0) and 150 mM NaCl] solution containing 0.05% tween-20. […] Immunoreactive proteins were detected with the ECL Western blotting detection system. The relative density of the protein bands was scanned by densitometry using MyImage (SLB) and quantified by Labworks 4.0 software (UVP Inc.).

Test [2] relates to HCT116 colon cancer cells. Nature of the test: Cell viability / growth, CCK-8 assay, HCT116. Conditions: Homo sapiens, HCT-116, HCT116, 48 h, read-out: IC50 of cell growth inhibition. The format is cell-based. Here is the method:
Panel b of FIGS. 2A-2C: Cell viability was determined by CCK-8 assay as described in Materials and Methods. SW620 (FIG. 2A) and HCT116 (FIG. 2B) colon cancer cells as well as normal cells (Caco-2) (FIG. 2C) were treated with various doses (30-150 μg/ml) of thiacremonone for different times (12-48 h). Values are each the mean±S.D. of three experiments, each performed in triplicate.
SW620 and HCT116 colon cancer cells were plated at a density of 10^4 cells/well in 96-well plates per 100 μl medium. To determine the appropriate concentration that is not cytotoxic to the cells, the cytotoxic effect was evaluated in cells cultured for 12, 24, 36, and 48 h using the cell counting kit-8 assay kit according to the manufacturer's instructions (Dojindo, Gaithersburg, Md., USA). Briefly, 10 μl of the CCK-8 solution was added to cells cultured for the designated time. The plates were incubated for 1-4 h in the incubator. The resulting color was assayed at […] using a microplate absorbance reader (Sunrise, Tecan, Switzerland). Each assay was carried out in triplicate.

With `CC1=C(O)C(=O)C(C)(O)S1` (stereo not shown) [thiacremonone, 2,4-dihydroxy-2,5-dimethyl-thiophene-3-one], in test [1], the “Expressions of apoptotic proteins Bax, cleaved caspases 3, cleaved PARP” value was “increased”; the “expressions of antiapoptotic protein Bcl-2, cIAP1/2, XIAP and cyclin D1” value is “decreased”; the “iNOS and COX-2 expression” value was “inhibited the expressions dose-dependently”. The half-inhibitory concentration (IC50) in test [2] is 130 µg/mL (≈ 812 µM).

(Values after patent US7759391B2, “Pharmaceutical composition comprising thiacremonone for treating colon cancer” (Chungbuk National University Industry Academic Cooperation …, priority 2007, dated 2010).)
